The assay relates to 762968-020-R-J2-PDC spheroids viability. Description: Anticancer human tumor 762968-020-R-J2-PDC patient-derived colon carcinoma cell line growth inhibition [TAK]. To be noted: spheroids with HUVEC and MSC; for viability, T/C: stronger effect = lower value. The text has this: Combinatorial screen of targeted agents with TAK-243 and ipatasertib in multi-cell type tumor spheroids
A high-throughput screen of multi-cell type tumor spheroids was designed to identify active combinations of targeted small molecules and TAK-243 or ipatasertib. Complex spheroids include a stromal component modeled by human endothelial cells (HUVEC) and fibroblasts modeled by human mesenchymal stem cells (MSCs). The concentration ranges selected for each drug and investigational agent were based upon clinically achievable concentrations if the clinical Cmax of the agent was known.
Compounds. The drugs and investigational agents: TAK-243 (785004), ipatasertib (767898), everolimus (733504), selumetinib (741078), bortezomib (756655), trametinib (758246), ixazomib (758254), vemurafenib (761431), dabrafenib (764134), sapanisertib (764658), alpelisib (765974), and copanlisib (816437), were obtained from the National Cancer Institute (NCI) Developmental Therapeutics Program Chemical Repository. The FDA-approved anticancer drug set is available from the NCI Developmental Therapeutics Program. […] The stock solutions were prepared in dimethyl sulfoxide (DMSO, Sigma-Aldrich, St. Louis, MO, cat. D2650) at 800-fold the tested concentration and stored at -70 degrees C prior to their use. All drugs and investigational agents were tested over a range starting from a high concentration at or near the clinical Cmax and decreasing in half-log increments. If the clinical Cmax for an agent had not been determined, the highest concentration tested was 10 microM.
NCI60 Cell Culture. NCI60 cell lines were obtained from the NCI Developmental Therapeutics Program Tumor Repository. For each lot of cells, the Repository performed Applied Biosystems AmpFLSTR Identifiler testing with PCR amplification to confirm consistency with the published Identifier STR profile for each cell line. Cells were kept in continuous culture for no more than 20 passages. The optimal seeding densities for each of the cell lines at each time point assessed were determined prior to performing the concentration response studies. Briefly, the NCI60 human tumor lines were grown as monolayers in RPMI 1640 medium supplemented with 10% FBS and 2 mmol/L L-glutamine.
An additional 2 lines were from the NCI60 cell line panel including melanomas, MALME-3M and SK-MEL-2. Pooled donor human umbilical vein endothelial cells (HUVEC, Lonza, cat. CC-2519) and human mesenchymal stem cells (hMSC, Lonza, cat. PT-2501) were purchased from Lonza (Walkersville, MD).
PDMR cell lines were grown in complete medium (DC medium): Dulbecco's modified Eagle's medium (DMEM)/F12 supplemented with 5% fetal bovine serum (FBS), 2 mM L-glutamine, 100 U/mL penicillin and 100 µg/ml streptomycin, 0.4 µg/ml hydrocortisone, 10 ng/ml epidermal growth factor (EGF) recombinant human protein, 24 µg/mL adenine, and 0.1 mg/mL primocin. During culture from frozen stock vials, PDMR cells were cultured in the same medium containing 10 µM Y-27632 (see Table 3). The PDCs were cultured in complete DMEM/F12 media without 10 microM Y-27632 dihydrochloride for at least two passages prior to the screen. The pooled donor HUVEC and hMSC were cultured in endothelial cell growth medium 2 (PromoCell, Heidelberg, Germany, cat. C-22011) and mesenchymal stem cell growth medium 2 (PromoCell, cat. C-28009), respectively. For all experiments, HUVEC and hMSC were used at passages </=5.
For the pre-screen, cell seeding densities were determined from a titration spanning the range from 5,000 to 313 cells per well. The mct-spheroids including 60% malignant cells, 25% HUVEC and 15% MSC dispensed as a mixture into U-bottom Ultra-Low Attachment 384-well plates (Corning, NY)
High-throughput Drug Combination Screening.
Prior to their inoculation into 384-well plates, malignant cells, HUVEC, and hMSC were removed from T flasks using TrypLE express (Thermo Fisher Scientific, cat. 12605036) and harvested by centrifugation for 5 min at 233 x g. […]

Each structure is given as a SMILES string. Values joined by “and” are separate entries in the source; they are usually repeats but may differ in a detail not shown here. Equal values may be shown once.
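Further: spheroids exposed to drug for 7 days before readout.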

What is called viability, T/C is the result in the treated group divided by that in the control group, in per cent. One may read the IC50 as the point on the concentration scale where inhibition reaches its midpoint. As to `CC(=O)Nc1cccc(-n2c(=O)n(C3CC3)c(=O)c3c(Nc4ccc(I)cc4F)n(C)c(=O)c(C)c32)c1`, the viability, T/C by setting is: (compound 94.9 pM) 98.7% and 103%; (compound 0.0003 µM) 103% and 97.5%; (compound 0.000949 µM) 97.3%; (compound 0.003 µM) 86.9% and 80.5%; (compound 0.00949 µM) 60.6% and 73.2%; (compound 0.03 µM) 41.2% and 39%. For the same molecule, the 50% inhibitory concentration (IC50) (curve of compound) is 17.8 nM and 20.4 nM.
As for `CC(C)(C)c1nc(-c2cccc(NS(=O)(=O)c3c(F)cccc3F)c2F)c(-c2ccnc(N)n2)s1`, the viability, T/C is, setting by setting: (compound 0.0316 µM) 85.6% and 94.4%; (compound 0.1 µM) 82.9% and 88.2%; (compound 0.316 µM) 92.5% and 85.2%; (compound 1 µM) 86.4% and 81%; (compound 3.16 µM) 90.5% and 88.5%; (compound 10 µM) 99.3% and 86.4%. Besides, the half-maximal inhibitory concentration (IC50) (curve of compound) is above 10000 nM.
With `CC(C)CC(NC(=O)C(Cc1ccccc1)NC(=O)c1cnccn1)B(O)O` (stereo not given), the viability, T/C was 94.6% and 101% (compound 31.6 pM); 102% and 101% (compound 0.0001 µM); 108% and 96.2% (compound 0.000316 µM); 103% and 99.8% (compound 0.001 µM); 109% and 99% (compound 0.00316 µM); 90.6% and 93.7% (compound 0.01 µM). Moreover, where the note is “curve of compound”, the 50% inhibitory concentration (IC50) was above 10 nM.
On to `CC(C)CC(NC(=O)CNC(=O)c1cc(Cl)ccc1Cl)B1OC(=O)CC(CC(=O)O)(C(=O)O)O1` (stereo not given), for which the viability, T/C reads like this: (compound 0.000316 µM) 100% and 110%; (compound 0.001 µM) 109% and 98.2%; (compound 0.00316 µM) 104% and 108%; (compound 0.01 µM) 97.5% and 107%; (compound 0.0316 µM) 96.1% and 98%; (compound 0.1 µM) 78.6% and 80.6%. Besides, the 50% inhibitory concentration (IC50) (curve of compound) is above 100 nM.
Consider `CC(C)NCC(C(=O)N1CCN(c2ncnc3c2C(C)CC3O)CC1)c1ccc(Cl)cc1` (stereo not given), for which the viability, T/C was 103% [middle of 10 runs] (compound 0.3 µM), 101% [middle of 10 runs] (compound 0.949 µM), 104% [middle of 10 runs] (compound 3 µM) and 99.7% [middle of 10 runs] (compound 9.49 µM). Also, the IC50 is, setting by setting: (compound alone, run of 02/28/2020) 17200 nM; (compound alone, run of 03/19/2020) above 30000 nM.
Take `CC(C)n1nc(-c2ccc3oc(N)nc3c2)c2c(N)ncnc21`: the viability, T/C reads like this: (compound 0.000316 µM) 99% and 96.9%; (compound 0.001 µM) 99% and 101%; (compound 0.00316 µM) 98.2% and 101%; (compound 0.01 µM) 94.8% and 99.8%; (compound 0.0316 µM) 89.5% and 103%; (compound 0.1 µM) 66.5% and 83.3%. The half-maximal inhibitory concentration (IC50) (curve of compound) was above 100 nM.
With `CCCS(=O)(=O)Nc1ccc(F)c(C(=O)c2c[nH]c3ncc(-c4ccc(Cl)cc4)cc23)c1F`, the viability, T/C is, setting by setting: (compound 0.316 µM) 88.9% and 96.2%; (compound 1 µM) 87.8% and 96.9%; (compound 3.16 µM) 90.3% and 92.5%; (compound 10 µM) 73.6% and 62.2%; (compound 31.6 µM) 99.2% and 102%; (compound 100 µM) 90.3% and 105%. Besides, for the setting “curve of compound”, the IC50 is above 100000 nM.
For the molecule `COC1CC2CCC(C)C(O)(O2)C(=O)C(=O)N2CCCCC2C(=O)OC(C(C)CC2CCC(OCCO)C(OC)C2)CC(=O)C(C)C=C(C)C(O)C(OC)C(=O)C(C)CC(C)C=CC=CC=C1C` (stereo not given), the viability, T/C reads like this: (compound 0.000316 µM) 103% and 106%; (compound 0.001 µM) 99.4% and 100%; (compound 0.00316 µM) 104% and 96.8%; (compound 0.01 µM) 105% and 107%; (compound 0.0316 µM) 101% and 107%; (compound 0.1 µM) 99.1% and 95.3%. The IC50 (curve of compound) is above 100 nM.
On to `COc1c(OCCCN2CCOCC2)ccc2c3n(c(=NC(=O)c4cnc(N)nc4)nc12)CCN3`, for which the viability, T/C is 101% and 102% (compound 0.00316 µM); 95.3% and 72% (compound 0.01 µM); 93% and 53.6% (compound 0.0316 µM); 80.6% and 42.5% (compound 0.1 µM); 76.2% and 50.6% (compound 0.316 µM); 73.9% and 52.4% (compound 1 µM).
For the molecule `Cc1nc(NC(=O)N2CCCC2C(N)=O)sc1-c1ccnc(C(C)(C)C(F)(F)F)c1` (stereo not given), the viability, T/C is, setting by setting: (compound 0.0316 µM) 113% and 104%; (compound 0.1 µM) 106% and 95.2%; (compound 0.316 µM) 106% and 93.9%; (compound 1 µM) 92.5% and 89.1%; (compound 3.16 µM) 91.7% and 87.4%; (compound 10 µM) 92.9% and 87.8%. For the same molecule, the 50% inhibitory concentration (IC50) (curve of compound) was above 10000 nM.
As for `Cn1cnc2c(F)c(Nc3ccc(Br)cc3Cl)c(C(=O)NOCCO)cc21`, the viability, T/C was 103% and 98.9% (compound 0.00949 µM); 93.8% and 91.6% (compound 0.03 µM); 89% and 82% (compound 0.0949 µM); 83.4% and 78.8% (compound 0.3 µM); 67.7% and 64.5% (compound 0.949 µM); 49.1% and 44.4% (compound 3 µM). The IC50 (curve of compound) is 2950 nM and 2240 nM.

Source of the values: PubChem BioAssay AID2060349 (Molecular Pharmacology Branch, DTP, NCI, 2025).
